{
  "source": "ChEMBL document CHEMBL1138727",
  "about": "(Bioorg Med Chem Lett, 2004)",
  "key": {"[1]": {"molecular_target": "Serine/threonine-protein kinase ATR (Homo sapiens, UniProt Q13535)", "assay": "Inhibition of Ataxia telangiectasia related protein ATR kinase"}, "[2]": {"molecular_target": "Serine-protein kinase ATM (Homo sapiens, UniProt Q13315)", "assay": "Inhibition of Mutated in ataxia telangiectasia protein ATM kinase"}, "[3]": {"molecular_target": "Serine/threonine-protein kinase mTOR (Homo sapiens, UniProt P42345)", "assay": "Inhibition of Mammalian target of Rapamycin mTOR"}, "[4]": {"molecular_target": "Phosphatidylinositol 4,5-bisphosphate 3-kinase catalytic subunit alpha isoform (Homo sapiens, UniProt P42336)", "sequence (P42336 whole entry, canonical isoform)": "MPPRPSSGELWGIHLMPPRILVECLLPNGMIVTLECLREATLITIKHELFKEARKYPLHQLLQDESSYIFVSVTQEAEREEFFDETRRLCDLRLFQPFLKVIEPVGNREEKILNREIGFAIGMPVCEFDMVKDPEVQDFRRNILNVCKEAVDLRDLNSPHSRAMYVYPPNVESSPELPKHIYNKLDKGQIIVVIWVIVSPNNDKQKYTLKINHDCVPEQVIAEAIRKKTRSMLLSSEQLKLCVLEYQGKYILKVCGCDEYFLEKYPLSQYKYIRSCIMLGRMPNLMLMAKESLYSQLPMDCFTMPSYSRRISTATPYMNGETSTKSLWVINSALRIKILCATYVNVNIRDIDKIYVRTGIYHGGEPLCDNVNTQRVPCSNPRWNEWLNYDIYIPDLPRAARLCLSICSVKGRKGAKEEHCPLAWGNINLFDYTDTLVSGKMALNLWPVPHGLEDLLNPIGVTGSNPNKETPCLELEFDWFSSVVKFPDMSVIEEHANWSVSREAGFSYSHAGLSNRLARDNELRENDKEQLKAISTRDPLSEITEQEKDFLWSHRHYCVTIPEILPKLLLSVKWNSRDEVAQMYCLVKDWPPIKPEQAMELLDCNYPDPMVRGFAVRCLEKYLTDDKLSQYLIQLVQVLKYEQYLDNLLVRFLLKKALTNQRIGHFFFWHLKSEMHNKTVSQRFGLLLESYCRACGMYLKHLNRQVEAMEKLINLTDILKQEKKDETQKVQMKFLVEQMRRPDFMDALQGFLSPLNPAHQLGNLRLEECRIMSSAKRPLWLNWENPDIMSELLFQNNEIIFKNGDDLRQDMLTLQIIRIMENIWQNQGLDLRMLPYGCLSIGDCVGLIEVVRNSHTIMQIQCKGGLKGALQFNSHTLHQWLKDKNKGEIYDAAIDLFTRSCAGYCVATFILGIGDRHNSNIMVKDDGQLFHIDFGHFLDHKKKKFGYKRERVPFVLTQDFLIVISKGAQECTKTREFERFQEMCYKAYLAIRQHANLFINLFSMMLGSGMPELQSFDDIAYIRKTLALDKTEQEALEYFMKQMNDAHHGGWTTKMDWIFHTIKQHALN", "assay": "Inhibition of Phosphatidylinositol 3-kinase p110 alpha subunit"}, "[5]": {"molecular_target": "T1, DNA-dependent protein kinase catalytic subunit (Homo sapiens, UniProt P78527)", "T1 sequence (P78527 whole entry)": "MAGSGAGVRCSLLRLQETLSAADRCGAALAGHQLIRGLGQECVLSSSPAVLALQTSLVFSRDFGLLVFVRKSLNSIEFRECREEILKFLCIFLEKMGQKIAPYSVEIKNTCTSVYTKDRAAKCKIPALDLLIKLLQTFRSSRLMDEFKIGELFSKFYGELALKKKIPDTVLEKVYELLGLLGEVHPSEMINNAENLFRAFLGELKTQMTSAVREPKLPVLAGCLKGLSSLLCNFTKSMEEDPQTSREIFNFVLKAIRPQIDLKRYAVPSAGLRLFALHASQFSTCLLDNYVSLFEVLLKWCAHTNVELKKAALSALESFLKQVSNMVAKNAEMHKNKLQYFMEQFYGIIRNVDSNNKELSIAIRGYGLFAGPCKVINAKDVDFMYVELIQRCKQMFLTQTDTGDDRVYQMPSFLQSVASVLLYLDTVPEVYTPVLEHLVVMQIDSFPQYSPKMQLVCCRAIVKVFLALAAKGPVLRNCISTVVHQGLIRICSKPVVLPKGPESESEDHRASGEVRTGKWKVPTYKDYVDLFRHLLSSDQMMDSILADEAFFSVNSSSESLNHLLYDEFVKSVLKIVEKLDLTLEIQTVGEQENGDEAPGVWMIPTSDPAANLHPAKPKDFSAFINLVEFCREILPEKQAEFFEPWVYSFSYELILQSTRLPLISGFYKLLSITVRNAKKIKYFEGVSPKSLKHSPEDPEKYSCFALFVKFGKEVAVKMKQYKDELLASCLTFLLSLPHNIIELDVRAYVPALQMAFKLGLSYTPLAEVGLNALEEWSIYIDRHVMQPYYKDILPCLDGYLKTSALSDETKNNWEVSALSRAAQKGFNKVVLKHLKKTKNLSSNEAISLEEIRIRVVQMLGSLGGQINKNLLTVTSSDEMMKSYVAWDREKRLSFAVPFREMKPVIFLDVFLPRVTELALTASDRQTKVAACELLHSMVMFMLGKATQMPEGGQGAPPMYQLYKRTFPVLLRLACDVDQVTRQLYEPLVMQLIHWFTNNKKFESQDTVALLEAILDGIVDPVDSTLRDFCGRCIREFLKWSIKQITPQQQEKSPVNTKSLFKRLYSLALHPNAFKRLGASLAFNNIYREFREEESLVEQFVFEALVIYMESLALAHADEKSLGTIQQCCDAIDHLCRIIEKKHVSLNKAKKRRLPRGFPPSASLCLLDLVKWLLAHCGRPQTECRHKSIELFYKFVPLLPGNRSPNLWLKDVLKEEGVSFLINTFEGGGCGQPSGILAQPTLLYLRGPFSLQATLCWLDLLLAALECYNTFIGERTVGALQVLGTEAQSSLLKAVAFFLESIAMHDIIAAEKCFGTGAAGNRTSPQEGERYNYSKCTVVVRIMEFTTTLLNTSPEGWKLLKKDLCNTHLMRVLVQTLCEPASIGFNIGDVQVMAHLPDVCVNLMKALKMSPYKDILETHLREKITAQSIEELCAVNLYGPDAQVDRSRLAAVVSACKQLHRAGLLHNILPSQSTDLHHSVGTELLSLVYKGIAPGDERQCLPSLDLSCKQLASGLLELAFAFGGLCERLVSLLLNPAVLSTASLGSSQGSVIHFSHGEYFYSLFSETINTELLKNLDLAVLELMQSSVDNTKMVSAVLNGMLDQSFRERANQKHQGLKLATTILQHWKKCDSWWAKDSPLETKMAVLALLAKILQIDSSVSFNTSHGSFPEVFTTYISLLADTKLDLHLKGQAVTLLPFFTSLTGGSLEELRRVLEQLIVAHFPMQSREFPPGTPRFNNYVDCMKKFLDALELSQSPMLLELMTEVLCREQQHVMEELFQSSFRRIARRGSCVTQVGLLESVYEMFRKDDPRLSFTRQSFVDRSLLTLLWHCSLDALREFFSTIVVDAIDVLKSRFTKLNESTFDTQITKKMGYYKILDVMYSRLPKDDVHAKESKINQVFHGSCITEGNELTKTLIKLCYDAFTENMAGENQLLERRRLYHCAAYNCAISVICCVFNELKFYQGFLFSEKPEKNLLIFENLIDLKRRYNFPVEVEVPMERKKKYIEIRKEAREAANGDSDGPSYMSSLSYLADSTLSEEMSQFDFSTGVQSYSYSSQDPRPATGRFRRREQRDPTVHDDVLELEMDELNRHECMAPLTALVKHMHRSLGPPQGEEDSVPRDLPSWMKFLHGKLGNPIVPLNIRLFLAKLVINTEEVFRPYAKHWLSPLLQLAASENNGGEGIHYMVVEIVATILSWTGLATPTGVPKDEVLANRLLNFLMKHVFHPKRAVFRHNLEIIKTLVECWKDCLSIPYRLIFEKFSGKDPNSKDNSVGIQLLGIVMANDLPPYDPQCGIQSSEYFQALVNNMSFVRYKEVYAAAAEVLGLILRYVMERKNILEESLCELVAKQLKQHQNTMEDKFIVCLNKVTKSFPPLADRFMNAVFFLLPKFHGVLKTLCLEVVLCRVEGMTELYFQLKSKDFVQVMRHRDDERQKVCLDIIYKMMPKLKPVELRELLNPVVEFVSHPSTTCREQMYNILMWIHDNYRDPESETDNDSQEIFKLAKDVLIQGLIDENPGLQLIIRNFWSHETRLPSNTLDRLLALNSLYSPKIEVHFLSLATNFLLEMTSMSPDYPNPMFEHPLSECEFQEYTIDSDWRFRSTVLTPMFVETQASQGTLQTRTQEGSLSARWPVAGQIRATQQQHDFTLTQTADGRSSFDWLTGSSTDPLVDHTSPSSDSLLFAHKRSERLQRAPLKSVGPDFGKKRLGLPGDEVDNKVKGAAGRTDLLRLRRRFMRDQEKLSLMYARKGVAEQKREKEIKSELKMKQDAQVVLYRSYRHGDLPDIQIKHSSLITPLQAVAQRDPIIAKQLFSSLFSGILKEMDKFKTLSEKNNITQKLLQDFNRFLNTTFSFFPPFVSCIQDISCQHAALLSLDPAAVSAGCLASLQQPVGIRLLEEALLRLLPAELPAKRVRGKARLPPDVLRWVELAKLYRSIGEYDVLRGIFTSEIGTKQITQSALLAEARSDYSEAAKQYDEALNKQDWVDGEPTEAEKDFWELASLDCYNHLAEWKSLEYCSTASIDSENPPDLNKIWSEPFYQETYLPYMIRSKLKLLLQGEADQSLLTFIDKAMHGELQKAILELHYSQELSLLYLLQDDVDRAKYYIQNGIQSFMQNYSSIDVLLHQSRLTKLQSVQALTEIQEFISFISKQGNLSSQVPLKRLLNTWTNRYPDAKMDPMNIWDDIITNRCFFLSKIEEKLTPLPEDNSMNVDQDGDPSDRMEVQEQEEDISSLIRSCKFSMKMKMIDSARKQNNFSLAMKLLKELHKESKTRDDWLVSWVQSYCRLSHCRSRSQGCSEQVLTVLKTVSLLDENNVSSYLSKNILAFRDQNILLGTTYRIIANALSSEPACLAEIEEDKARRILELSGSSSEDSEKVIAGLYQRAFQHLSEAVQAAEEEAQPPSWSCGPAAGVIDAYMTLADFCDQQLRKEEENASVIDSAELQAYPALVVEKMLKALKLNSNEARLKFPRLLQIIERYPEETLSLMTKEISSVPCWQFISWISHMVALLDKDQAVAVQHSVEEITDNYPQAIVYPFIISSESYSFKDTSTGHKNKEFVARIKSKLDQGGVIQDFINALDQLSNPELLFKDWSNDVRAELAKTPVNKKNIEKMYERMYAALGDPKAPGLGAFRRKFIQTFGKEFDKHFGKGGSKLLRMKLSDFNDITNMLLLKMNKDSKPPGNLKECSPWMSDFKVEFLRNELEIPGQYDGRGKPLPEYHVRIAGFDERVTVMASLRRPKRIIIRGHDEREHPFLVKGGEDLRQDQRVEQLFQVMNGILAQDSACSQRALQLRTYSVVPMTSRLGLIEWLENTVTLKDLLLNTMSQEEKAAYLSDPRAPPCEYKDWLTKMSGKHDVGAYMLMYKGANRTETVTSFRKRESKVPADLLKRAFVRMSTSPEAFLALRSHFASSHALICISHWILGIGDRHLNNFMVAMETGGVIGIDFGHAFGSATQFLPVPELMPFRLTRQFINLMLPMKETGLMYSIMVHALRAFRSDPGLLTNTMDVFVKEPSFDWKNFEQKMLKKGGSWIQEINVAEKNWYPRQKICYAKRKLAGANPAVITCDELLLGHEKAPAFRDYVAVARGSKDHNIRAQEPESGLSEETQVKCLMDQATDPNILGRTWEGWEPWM", "assay": "Inhibitory activity against DNA-dependent protein kinase (DNA-PK) at 0.5 uM"}, "[6]": {"molecular_target": "T1, DNA-dependent protein kinase catalytic subunit", "assay": "Inhibitory activity against DNA-dependent protein kinase (DNA-PK)"}},
  "data": [
    {"smiles": "O=c1cc(N2CCOCC2)oc2c1ccc1ccccc12", "values": [
      {"measurement": "IC50", "setting": "[1]", "result": "> 100000", "unit": "nM"},
      {"measurement": "IC50", "setting": "[2]", "result": "> 100000", "unit": "nM"},
      {"measurement": "IC50", "setting": "[3]", "result": 6400, "unit": "nM"},
      {"measurement": "IC50", "setting": "[4]", "result": 13000, "unit": "nM"}
    ]},
    {"smiles": "CC(=O)c1ccc(-c2cccc3c(=O)cc(N4CCOCC4)oc23)s1", "values": [
      {"measurement": "IC50", "setting": "[5]", "result": 800, "unit": "nM"}
    ]},
    {"smiles": "O=c1cc(N2CCOCC2)oc2c(-c3ccc(CO)cc3)cccc12", "values": [
      {"measurement": "IC50", "setting": "[5]", "result": 600, "unit": "nM"}
    ]},
    {"smiles": "CC1CN(c2cc(=O)c3ccc4ccccc4c3o2)CCO1", "note": "(stereo not drawn)", "values": [
      {"measurement": "IC50", "setting": "[5]", "result": 190, "unit": "nM"}
    ]},
    {"smiles": "O=c1cc(N2CCOCC2)oc2c(-c3cc4ccccc4s3)cccc12", "values": [
      {"measurement": "IC50", "setting": "[5]", "result": 800, "unit": "nM"}
    ]},
    {"smiles": "O=c1cc(N2CCOCC2)oc2c(-c3ccccc3)cccc12", "note": "[LY-294002]", "values": [
      {"measurement": "IC50", "setting": "[1]", "result": "> 100000", "unit": "nM"},
      {"measurement": "IC50", "setting": "[6]", "result": 1200, "unit": "nM"},
      {"measurement": "IC50", "setting": "[2]", "result": "> 100000", "unit": "nM"},
      {"measurement": "IC50", "setting": "[3]", "result": 2500, "unit": "nM"}
    ]},
    {"smiles": "O=c1cc(N2CCOCC2)oc2c(-c3cccs3)cccc12", "values": [
      {"measurement": "IC50", "setting": "[5]", "result": 300, "unit": "nM"}
    ]},
    {"smiles": "O=c1cc(N2CCOCC2)oc2ccccc12", "values": [
      {"measurement": "IC50", "setting": "[5]", "result": 1300, "unit": "nM"}
    ]},
    {"smiles": "O=c1cc(N2CCOCC2)oc2c(-c3ccsc3)cccc12", "values": [
      {"measurement": "IC50", "setting": "[5]", "result": 300, "unit": "nM"}
    ]},
    {"smiles": "O=c1cc(N2CCOCC2)oc2c(-c3cccc4c3sc3ccccc34)cccc12", "values": [
      {"measurement": "IC50", "setting": "[1]", "result": "> 100000", "unit": "nM"},
      {"measurement": "IC50", "setting": "[6]", "result": 14, "unit": "nM"},
      {"measurement": "IC50", "setting": "[2]", "result": "> 100000", "unit": "nM"},
      {"measurement": "IC50", "setting": "[3]", "result": 1700, "unit": "nM"},
      {"measurement": "IC50", "setting": "[4]", "result": 5000, "unit": "nM"},
      {"measurement": "IC50", "setting": "[5]", "result": 20, "unit": "nM"}
    ]},
    {"smiles": "O=c1cc(N2CCOCC2)oc2c(-c3cccc4c3oc3ccccc34)cccc12", "values": [
      {"measurement": "IC50", "setting": "[5]", "result": 40, "unit": "nM"}
    ]},
    {"smiles": "COc1ccc(-c2cccc3c(=O)cc(N4CCOCC4)oc23)cc1", "values": [
      {"measurement": "IC50", "setting": "[5]", "result": 900, "unit": "nM"}
    ]}
  ]
}
